How the values were obtained:
Assay type in all cases: in vivo
[1] = system: liver of male Wistar Hannover rats; assay: Rat hepatotoxicity study: liver morphology / histopathology for steatosis; settings: 7 days dosing, sacrifice day 8, male Wistar Hannover rats
From the text: The primary objective of the study was to discover biomarkers in plasma of hepatic steatotic processes. In the course of this study, multiple molecular profiling techniques and data analysis methodologies were employed. A corollary objective of this study was to elucidate mechanisms underlying hepatic steatosis induced by the drug.
The study was designed to generate tissue and body fluid samples from groups of animals exposed for varying times at different doses to a drug previously shown to produce toxic steatosis of the liver.
(§1) Five Wistar Hannover male rats were used per group. Three groups were dosed for 7 days (control, low and intermediate dose) and urine collected twice daily for up to 7 days. One group was dosed once with a high dose of the drug and kept in a metabolism cage for a recovery study. In addition, three groups (control, intermediate and high dose) were dosed once and sacrificed after 24 hours. Plasma and liver tissue samples were collected from all groups at necropsy. Clinical pathology was performed and histopathological evaluations were provided.
The study was designed to generate tissue and body fluid samples from groups of animals treated for varying times and with different doses of ABC123. The different time points and dosing schedules were intended to allow the identification of biomarkers of steatosis over different times and doses.

[2] = system: plasma analytes of male Wistar Hannover rats; assay: Plasma GC-MS metabolite profiling in rat hepatotoxicity study; settings: Group 3 drug-administered animals compared to Group 1 animals
Experimental: as §1
Liver and plasma lipid LC-MS. Samples (liver or plasma) were treated with isopropanol to precipitate the protein and to extract the lipid metabolites. […] Resulting mass spectra were peak detected with IMPRESS (proprietary software, BG Medicine, Inc., Waltham, Mass.) and aligned/normalized with Equest and WinLin (proprietary software, BG Medicine, Inc., Waltham, Mass.). […] Metabolites detected with this approach include polar and non-polar lipids. […] The samples were detected with electron impact ionization on an Agilent 5973 MSD. […] Metabolites detected with this method include: alcohols, aldehydes and cyclohexanols, amino acids, acyl amino acids, succinylamino acids, amines, aromatic compounds, fatty acids (>C6), organic acids, phospho-organic acids, sugars, sugar acids, sugar amines, and sugar phosphates. […]

[3] = system: Enzyme_ABC in liver tissue; assay: Liver LC-MS proteomics profiling in rat hepatotoxicity study; settings: Group 3 drug-administered animals relative to Group 1 control animals
Experimental: as §1
• Sample: 100 mg of liver dissected from the thawed liver sample was cut into four 25 mg pieces and homogenized. • Clarification/Fractionation: Unbroken cells, nuclei and extracellular debris were removed using low-G centrifugation, and the resulting clarified homogenate was then subjected to membrane/cytosol fractionation using high-speed ultracentrifugation. • Protein Fractionation of Cytosol: The total cytosolic protein was subjected to C4 reversed-phase column chromatography to isolate 3 fractions for proteomic analysis. […] The resulting membrane tryptic peptide fraction was dried in vacuo. • Profiling of Peptides: Cytosolic peptides from the three acidic peptide sets and the membrane tryptic peptide fraction were quantitatively analyzed for differential expression via reversed-phase LC-ESI-MS. […]

[4] = system: liver mRNA transcripts (Enzyme_ABC, Enzyme_DEF); assay: Liver mRNA transcript profiling (Affymetrix U34A) in rat hepatotoxicity study; settings: Group 3 drug-administered animals relative to Group 1 control animals
Experimental: Affymetrix microarray processing was carried out on liver tissue samples from 35 animals distributed among the seven experimental groups.
An additive effect on the log-transformed signal related to hybridization day was modeled, and the triplicate control samples were used to estimate the effect.

## Cn1c(=O)c2c(ncn2CC2OCCO2)n(C)c1=O [ABC123]
[1]; Group 2 (lowest dose): 20 mg/kg/day
  steatosis upon examination of the livers using standard morphology techniques: no evidence of steatosis
[1]; Group 3: 200 mg/kg/day
  steatosis upon examination of the livers using standard morphology techniques: morphological steatosis
[2]
  increase in abundance of Metabolite_XYZ in plasma (plasma GC-MS platform): approximately 1.4 fold
[3]
  reduction in abundance of Enzyme_ABC in liver tissue (proteomics platform): approximately 2 fold
[4]
  reduction in abundance of Enzyme_ABC in liver tissue (mRNA transcript platform): approximately 1.7 fold

Source: patent US20110010099A1, “Correlation Analysis of Biological Systems” (priority 2005, published 2011)
